These results are taken from the supplement of paper PMC11208160.
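Further: IS621 recombinase and bridge RNA in Escherichia coli cells.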

The series in a line: recombinant barcode read abundance after kanamycin selection (control-corrected) (log10(CPM+1)); higher = more efficient recombination; sequences stand for … in AGTGCAGAGAAAATCGGCCAGTTTTCTCTGCCTGCAGTCCGCATGCCGT…AGATTTATGCAGCGGACTGCCTTTCTCCCAAAGTGATAAACCGGACAGTATCATGGACCGGTTTTCCCGGTAATCCGTATTTGCAAGGTTGGTTTCACT; site = the 11-nt target. The method, then:
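Pooled E. coli target-specificity screen for the IS621 bridge recombinase. Each library plasmid pairs an 11-nt target (CT core) with a bridge RNA whose target-binding loop (9-nt LTG + 4-nt RTG) is reprogrammed; the rest of the 177-nt WT IS621 bridge RNA scaffold is fixed. The plasmid is co-electroporated with a WT donor plasmid; recombinase is induced with 0.1 mM IPTG and recombinants are selected on kanamycin. Recombinant barcodes are sequenced, converted to CPM, averaged over two biological replicates and corrected by the unselected control CPM. Molecule = full bridge RNA written as DNA: LTG = specificity nt 1-9, RTG = reverse complement of specificity nt 8-11, in the WT scaffold.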
As to “ACGCTGGCTTGGGTTCTAACCTGTTGCCT (site ACCCTGGCTAG)”, the “recombinant barcode read abundance (log10)” value is 0.0594.
The same measure for “ACGCTGGCTTGGGTTCTAACCTGTTGCCT (site ACGCTGGCTAG)”: 0.381; for “ACGCTGGCTTGGGTTCTAACCTGTTGCCT (site ACTCTGGCTAG)”: 0.0925.
The same measure for “ACGGGATCTTGGGTTCTAACCTGTTGCCT (site ACGGGATCTAG)”: 1.57; for “ACGGGATCTTGGGTTCTAACCTGTTGCCT (site CCGGGATCTAG)”: 0.24; for “ACGGGATCTTGGGTTCTAACCTGTTGCCT (site GCGGGATCTAG)”: 0.129.
With “ACGGGATCTTGGGTTCTAACCTGTTGCCT (site TCGGGATCTAG)”, the “recombinant barcode read abundance (log10)” value amounted to 0.0975.
The same measure for “ACGGGTCCTTGGGTTCTAACCTGTTGCAG (site ACGGGTCCTCT)”: 3.09.
The same measure for “ACGGGTCCTTGGGTTCTAACCTGTTGCAG (site GGCAAGGCTAG)”: 0.0641.
In the case of “ACGGGTTCTTGGGTTCTAACCTGTTGCCT (site ACGGGTTCTAG)” it was 2.46; in that of “ACGGGTTCTTGGGTTCTAACCTGTTGCCT (site TCCGGTTCTAG)”, 0.107; in that of “ACGGTCACTTGGGTTCTAACCTGTTGCCT (site AAGGTCACTAG)”, 0.331.
For the sequence “ACGGTCACTTGGGTTCTAACCTGTTGCCT (site ACGGTCACTAG)”, the “recombinant barcode read abundance (log10)” value was 2.95.
On to “ACGGTCACTTGGGTTCTAACCTGTTGCCT (site AGGGTCACTAG)”, for which the “recombinant barcode read abundance (log10)” value came out at 0.264.
In the case of “ACGGTCACTTGGGTTCTAACCTGTTGCCT (site ATGGTCACTAG)” it was 0.869; in that of “ACGGTGACTTGGGTTCTAACCTGTTGCCT (site ACGGTGACTAG)”, 2.24; in that of “ACGGTGACTTGGGTTCTAACCTGTTGCCT (site CCGGTGACTAG)”, 0.298.
In the case of “ACGGTGACTTGGGTTCTAACCTGTTGCCT (site GCGGTGACTAG)”, the “recombinant barcode read abundance (log10)” value worked out at 0.0376.
The same measure for “ACGGTGACTTGGGTTCTAACCTGTTGCCT (site TCGGTGACTAG)”: 0.0684; for “ACGTAGACTTGGGTTCTAACCTGTTGCAG (site ACAGAGACTCT)”: 0.145.
The same measure for “ACGTAGACTTGGGTTCTAACCTGTTGCAG (site ACGTAGACTCT)”: 0.802.
In the case of “ACGTCCACTTGGGTTCTAACCTGTTGCCA (site ACGTCCACTTG)” it was 0.148; in that of “ACGTCCACTTGGGTTCTAACCTGTTGCCA (site GGAAGGTCTAT)”, 0.025.
Regarding “ACGTCCACTTGGGTTCTAACCTGTTGCCT (site ACGTCCACTAG)”, the “recombinant barcode read abundance (log10)” value was determined as 0.0313.
In the case of “ACGTCCACTTGGGTTCTAACCTGTTGCCT (site CCGTCGACTAG)” it was 0.317.
In the case of “ACGTCGTCTTGGGTTCTAACCTGTTGCCT (site AAGTCGTCTAG)” it was 0.0262; in that of “ACGTCGTCTTGGGTTCTAACCTGTTGCCT (site ACGTCGTCTAG)”, 0.0697.
For the sequence “ACGTCGTCTTGGGTTCTAACCTGTTGCCT (site AGGTCGTCTAG)”, the “recombinant barcode read abundance (log10)” value amounted to 0.102.
Consider “ACGTCGTCTTGGGTTCTAACCTGTTGCCT (site ATGTCGTCTAG)”, for which the “recombinant barcode read abundance (log10)” value was 0.0865.
The same measure for “ACGTTACCTTGGGTTCTAACCTGTTGCCT (site ACGATACCTAG)”: 0.331.
With “ACGTTACCTTGGGTTCTAACCTGTTGCCT (site ACGTTACCTAG)”, the “recombinant barcode read abundance (log10)” value amounted to 0.501.
Consider “ACGTTGCCTTGGGTTCTAACCTGTTGCCT (site ACATTGCCTAG)”, for which the “recombinant barcode read abundance (log10)” value was 0.188.
For the sequence “ACGTTGCCTTGGGTTCTAACCTGTTGCCT (site ACCTTGCCTAG)”, the “recombinant barcode read abundance (log10)” value stood at 0.0523.
The same measure for “ACGTTGCCTTGGGTTCTAACCTGTTGCCT (site ACGTTGCCTAG)”: 0.316; for “ACGTTGCCTTGGGTTCTAACCTGTTGCCT (site ACTTTGCCTAG)”: 0.0271; for “ACTACTCCTTGGGTTCTAACCTGTTGCAG (site ACTACTCCTCT)”: 0.461.
The same measure for “ACTACTCCTTGGGTTCTAACCTGTTGCAG (site ACTGGTCCTCT)”: 0.183.
For “ACTAGAGCTTGGGTTCTAACCTGTTGCCT (site ACAAGAGCTAG)”, the “recombinant barcode read abundance (log10)” value amounted to 0.122.
The same measure for “ACTAGAGCTTGGGTTCTAACCTGTTGCCT (site ACCAGAGCTAG)”: 0.268.
The same measure for “ACTAGAGCTTGGGTTCTAACCTGTTGCCT (site ACGAGAGCTAG)”: 0.197.
The same measure for “ACTAGAGCTTGGGTTCTAACCTGTTGCCT (site ACTAGAGCTAG)”: 0.198.
Consider “ACTAGCTCTTGGGTTCTAACCTGTTGCCT (site ACTAGCTCTAG)”, for which the “recombinant barcode read abundance (log10)” value worked out at 0.356.
In the case of “ACTAGCTCTTGGGTTCTAACCTGTTGCCT (site ACTTGCTCTAA)”, the “recombinant barcode read abundance (log10)” value is 0.0142.
In the case of “ACTATGACTTGGGTTCTAACCTGTTGCTT (site ACTATGACTAA)” it was 0.75; in that of “ACTATGACTTGGGTTCTAACCTGTTGCTT (site GACTATCCTCG)”, 0.0905; in that of “ACTATGTCTTGGGTTCTAACCTGTTGCCA (site ACTATGTCTTG)”, 0.147.
In the case of “ACTATGTCTTGGGTTCTAACCTGTTGCCA (site CCTATGTCTTA)” it was 0.00838.
Take “ACTCAGGCTTGGGTTCTAACCTGTTGCCG (site ACAGAGGCTCG)”: the “recombinant barcode read abundance (log10)” value amounted to 0.138.
In the case of “ACTCAGGCTTGGGTTCTAACCTGTTGCCG (site ACTCAGGCTCG)” it was 0.541; in that of “ACTCCGTCTTGGGTTCTAACCTGTTGCTA (site ACTCCGTCTTA)”, 1.11; in that of “ACTCCGTCTTGGGTTCTAACCTGTTGCTA (site GCTCCGTCTAA)”, 0.0432.
In the case of “ACTCGACCTTGGGTTCTAACCTGTTGCCT (site ACTAGACCTAG)” it was 0.197; in that of “ACTCGACCTTGGGTTCTAACCTGTTGCCT (site ACTCGACCTAG)”, 1.78; in that of “ACTGAGTCTTGGGTTCTAACCTGTTGCAT (site ACTGAGTCTAT)”, 2.69.
The same measure for “ACTGAGTCTTGGGTTCTAACCTGTTGCAT (site ACTGAGTCTTT)”: 0.109; for “ACTGAGTCTTGGGTTCTAACCTGTTGCTT (site ACTGAGTCTAA)”: 1.22.
Take “ACTGAGTCTTGGGTTCTAACCTGTTGCTT (site ACTGGGTCTAA)”: the “recombinant barcode read abundance (log10)” value was 0.0903.
In the case of “ACTGGACCTTGGGTTCTAACCTGTTGCTT (site ACTGGACCTAA)” it was 2.23; in that of “ACTGGACCTTGGGTTCTAACCTGTTGCTT (site GCTGGACCTAG)”, 0.616.
The same measure for “ACTGGGGCTTGGGTTCTAACCTGTTGCCA (site ACTGGGGCTTG)”: 0.782; for “ACTGGGGCTTGGGTTCTAACCTGTTGCCA (site TCTGGGGCTAG)”: 0.0799.
The same measure for “ACTGGTCCTTGGGTTCTAACCTGTTGCAG (site ACTACTCCTCT)”: 0.0961; for “ACTGGTCCTTGGGTTCTAACCTGTTGCAG (site ACTGGTCCTCT)”: 2.59.
With “ACTTAGCCTTGGGTTCTAACCTGTTGCAT (site ACTTAGCCTAG)”, the “recombinant barcode read abundance (log10)” value worked out at 1.48.
Turning to “ACTTAGCCTTGGGTTCTAACCTGTTGCAT (site ACTTAGCCTAT)”, the “recombinant barcode read abundance (log10)” value came out at 1.27.
The same measure for “ACTTCGACTTGGGTTCTAACCTGTTGCCT (site AATTCGACTAG)”: 0.0426.
In the case of “ACTTCGACTTGGGTTCTAACCTGTTGCCT (site ACTTCGACTAG)” it was 0.116.
“ACTTCGACTTGGGTTCTAACCTGTTGCCT (site AGTTCGACTAG)”: the “recombinant barcode read abundance (log10)” value is 0.461.
The same measure for “ACTTCGACTTGGGTTCTAACCTGTTGCCT (site ATTTCGACTAG)”: 0.0176.
In the case of “ACTTCTTCTTGGGTTCTAACCTGTTGCCT (site ACTTCTACTCG)” it was 0.124; in that of “ACTTCTTCTTGGGTTCTAACCTGTTGCCT (site ACTTCTTCTAG)”, 0.0747; in that of “ACTTGCTCTTGGGTTCTAACCTGTTGCTT (site ACTAGCTCTAG)”, 0.448.
As for “ACTTGCTCTTGGGTTCTAACCTGTTGCTT (site ACTTGCTCTAA)”, the “recombinant barcode read abundance (log10)” value was 0.136.
